Data taken from patent US9781938B2, “Method for eliciting plant immune responses by seed priming of heat-treated Bacillus culture solution” (KOREA RESEARCH INSTITUTE OF BIOSCIENCE AND BIOTECHNOLOGY, priority 2012, dated 2017).

What was measured:
Format in all cases: in vivo
[1] = test system: Psuedomonas syringae pv. lachrymans; assay: Establishment of seed priming conditions using BTH: induced systemic resistance in cucumber (culture dish and pot), degree of symptom; conditions: cucumber seed soaked in 1 mM BTH for 12 hours and 18 hours; in vitro and in planta
Method: (§1) Regarding the priming of a cucumber seed, to establish conditions for seed treatment at which induced systemic resistance against is induced in a plant without inhibiting plant growth, a cucumber seed was treated with BTH (benzothiadiazole), i.e., a potent substance for eliciting resistance, and it was cultivated in a rectangular culture solution dish (125×125 mm) and a pot for determination. The cucumber seed (Bakbong Dadagi, manufactured by Nongwoo Bio, Korea) was subjected to surface sterilization for 5 minutes using 5% NaOCl and, after rinsing 5 times with sterilized water, died on a filter paper. The sterilized seed was soaked for 0, 6, 12, or 18 hours in BTH solution each at 0.1 μM, 10 μM, or 1 mM. 0 Hour means that the seed was dried immediately after soaking. The soaked seed was dried for 12 hours on a culture dish overlaid with a sterilized filter paper. The seed after priming was sown in a pot filled with soil for horticulture (Punong Co., Ltd., Korea) and also in a rectangular culture dish containing distilled water-agar medium (Water agar; WA, plant agar (8 g/L)). […] Seven days later, any symptom of disease was determined, and the degree of symptom was measured with scale of from 1 to 5. […] Stem weight was measured simultaneously with determination of the degree of symptom to see if there is any growth inhibition.

cucumber = assay: Establishment of seed priming conditions using BTH: stem weight to see growth inhibition
Method: as §1

LOX gene = assay: qRT-PCR expression of plant disease resistance-related gene LOX in cucumber leaf after pathogen inoculation; conditions: BTH treatment group; time not stated
Method: (§2) In order to measure an expression amount of a plant disease resistance-related gene, pathogen was inoculated to a cucumber, and sampling was made 0, 3 or 24 hours later. Total RNA was isolated from the sampled cucumber leaf by using RNeasy Plus Mini Kit (50). cDNA was synthesized from 2 μg of the RNA by using an oligo-dT primer and MMLV-RT (Moloney murine leukemia virus reverse transcriptase, Enzynomics, KOREA). cDNA was then used for qRT-PCR (quantitative Reverse Transcriptase Polymerase Chain Reaction) based on Chromo4 Real Time PCR system (BIO-RAD) by using each primer for the genes of LOX, PR2 and ETR that are known to be related to resistance to diseases. LOX primer is as follows; forward direction: 5′-[…]-3′ (SEQ ID NO: 1) and reverse direction: 5′-[…]-3′ (SEQ ID NO: 2), PR2 primer is as follows; forward direction: 5′-[…]-3′ (SEQ ID NO: 3) and reverse direction: 5′-[…]-3′ (SEQ ID NO: 4), and ETR primer is as follows; forward direction: 5′-[…]-3′ (SEQ ID NO: 5) and reverse direction: 5′-GCCAAAGACCACTGCCACA-3′ (SEQ ID NO: 6).

PR2 gene = assay: qRT-PCR expression of plant disease resistance-related gene PR2 in cucumber leaf after pathogen inoculation; conditions: after 24 hours
Method: as §2

## CSC(=O)c1cccc2nnsc12 [BTH, benzo(1,2,3)-thiadiazole-7-carbothioic acid S-methyl ester]
[1]
  eliciting induced systemic resistance: most effective
cucumber; seed soaked in 1 mM BTH for 12 hours
  growth inhibition (stem weight): no growth inhibition
cucumber; seed treated with 1 mM BTH for 18 hours, compared to sterilized water control
  growth inhibition (stem weight): growth inhibition is shown with a statistic significance
LOX gene
  expression level of LOX gene versus negative control: close to that of a negative control
PR2 gene
  PR2 expression level: 1.7
PR2 gene; vs negative control water
  PR2 expression level relative to water (0.4): 4.3 times
